In PubChem BioAssay (NCI) one finds TGI and GI50 data, which are given here for twelve molecules.

Some test systems named below: IGROV1 ovarian; MCF7 breast; HT29 colon; SW-620 colon; RXF 393 renal; PC-3 prostate; M14 melanoma; SNB-19 CNS; MOLT-4 leukemia; DU-145 prostate.
Test in all cases: NCI anticancer screen, dose series, 48 h

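Where inhibition never reached the appropriate level, the endpoint shown equals the highest concentration tested. Otherwise, values were interpolated linearly from a five-concentration, 48-hour dose response in 96-well plates. GI50 is the concentration that inhibits growth by half. The concentration for full growth arrest is given as TGI.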

As to `CCOC(=O)/C=C/C1=C(Br)[C@@]2(C)CC[C@@H]3c4ccc(O)cc4CC[C@H]3[C@@H]2C1`, the TGI in the experiment with IGROV1 ovarian came to 24.7 µM; with MCF7 breast it was 26.7 µM; in the experiment with HT29 colon it was 27.8 µM; in the experiment on SW-620 colon, 37.3 µM; with RXF 393 renal it was 29.5 µM; in the experiment with PC-3 prostate, 28.5 µM. Further, the TGI in the experiment with M14 melanoma worked out at 23.9 µM; with SNB-19 CNS, 30.2 µM; in the experiment with MOLT-4 leukemia it was 43.2 µM; in the experiment on DU-145 prostate, 19.1 µM.

For `CN(CCc1ccccn1)c1ccc2c(c1)Cc1ccccc1-2`, the TGI with IGROV1 ovarian is 88.1 µM; in the experiment with MCF7 breast it was greater than 100 µM; in the experiment on HT29 colon, greater than 100 µM; in the experiment with SW-620 colon it was greater than 100 µM; in the experiment on RXF 393 renal, greater than 100 µM; with PC-3 prostate, 23.9 µM. Moreover, the TGI is 94.3 µM in the experiment on M14 melanoma, 58 µM in the experiment with SNB-19 CNS, greater than 100 µM in the experiment with MOLT-4 leukemia and greater than 100 µM in the experiment with DU-145 prostate.

In the case of `Clc1cccc(/C=c2\nc(-c3ccccc3)n3c2nc2ccccc23)c1`, the TGI with IGROV1 ovarian, in the experiment on MCF7 breast, with HT29 colon, with SW-620 colon, in the experiment with RXF 393 renal and in the experiment with PC-3 prostate was greater than 100 µM each time. The TGI in the experiment with M14 melanoma, in the experiment on SNB-19 CNS, with MOLT-4 leukemia and in the experiment with DU-145 prostate was greater than 100 µM each time.

As for `COc1ccc(-n2nc(C(=O)c3ccccc3)c3nn4c(=O)cc(-c5ccccc5)nc4nc32)cc1`, the GI50 in the experiment on IGROV1 ovarian is 25.9 µM; in the experiment with MCF7 breast, 30.7 µM; with HT29 colon, 32.2 µM; in the experiment with SW-620 colon, 44.3 µM; in the experiment on RXF 393 renal it was greater than 100 µM; in the experiment with PC-3 prostate it was 50.5 µM. Moreover, the GI50 in the experiment on M14 melanoma was 30.3 µM; in the experiment with SNB-19 CNS it was 69.1 µM; with MOLT-4 leukemia, 34.8 µM; in the experiment with DU-145 prostate it was 49.2 µM. Besides, the TGI in the experiment on IGROV1 ovarian, in the experiment with MCF7 breast, with HT29 colon, in the experiment on SW-620 colon, with RXF 393 renal and in the experiment on PC-3 prostate was greater than 100 µM each time. For the same molecule, the TGI in the experiment on M14 melanoma, in the experiment on SNB-19 CNS, with MOLT-4 leukemia and in the experiment on DU-145 prostate was greater than 100 µM throughout.

For the molecule `Cc1ccc(S(=O)(=O)Nc2cc(=O)[nH]c3c2CCC3)cc1`, the TGI in the experiment with IGROV1 ovarian, in the experiment on MCF7 breast, in the experiment on HT29 colon, with SW-620 colon, in the experiment with RXF 393 renal and with PC-3 prostate was greater than 100 µM in each case. Further, the TGI in the experiment on M14 melanoma, with SNB-19 CNS, with MOLT-4 leukemia and in the experiment with DU-145 prostate was greater than 100 µM each time.

On to `CN(C)c1ccc(/C=C2\C[C@H]3[C@@H]4CC=C5C[C@@H](O)CC[C@]5(C)[C@H]4CC[C@]3(C)[C@H]2O)cc1`, for which the TGI is 35.3 µM in the experiment with IGROV1 ovarian; 34.4 µM in the experiment with MCF7 breast; 27.5 µM in the experiment on HT29 colon; 67.3 µM with SW-620 colon; 68 µM in the experiment on RXF 393 renal; 25.8 µM in the experiment on PC-3 prostate. The TGI was 41.3 µM in the experiment on M14 melanoma, 37.1 µM with SNB-19 CNS, greater than 100 µM in the experiment on MOLT-4 leukemia and greater than 100 µM in the experiment with DU-145 prostate.

Regarding `COc1ccc2c3c([nH]c2c1)[C@H](C=C(C)C)N1C(=O)[C@@H]2CCCN2C(=O)[C@@H]1C3`, the TGI in the experiment with IGROV1 ovarian, with MCF7 breast, in the experiment on HT29 colon, in the experiment on SW-620 colon, in the experiment on RXF 393 renal and in the experiment with PC-3 prostate was greater than 100 µM in each case. Further, the TGI in the experiment on M14 melanoma, with SNB-19 CNS, with MOLT-4 leukemia and with DU-145 prostate was greater than 100 µM each time.

With `CS(=O)(=O)Nc1ccc(NCc2cnc3ccc4[nH]cccc4c23)cc1`, the TGI in the experiment with IGROV1 ovarian was greater than 100 µM; in the experiment on MCF7 breast, 94.9 µM; in the experiment with HT29 colon it was greater than 100 µM; in the experiment with SW-620 colon, greater than 100 µM; in the experiment with RXF 393 renal, 41.9 µM; in the experiment on PC-3 prostate, 48.1 µM. In addition, the TGI in the experiment with M14 melanoma is 46.4 µM; with SNB-19 CNS, greater than 100 µM; with MOLT-4 leukemia it was 33.6 µM; in the experiment with DU-145 prostate it was 71.3 µM.

For the molecule `CCC1=C(CC2NCCc3cc(OC)c(OC)cc32)CC2c3ccccc3CCN2C1` (stereo not given), the TGI in the experiment with IGROV1 ovarian was greater than 100 µM; in the experiment with MCF7 breast, 42.7 µM; with HT29 colon, 20.6 µM; in the experiment on SW-620 colon, 37.3 µM; in the experiment on RXF 393 renal it was greater than 100 µM; with PC-3 prostate, 78.3 µM. Also, the TGI is 27.3 µM in the experiment with M14 melanoma, greater than 100 µM in the experiment on SNB-19 CNS, 43.9 µM in the experiment with MOLT-4 leukemia and greater than 100 µM in the experiment with DU-145 prostate.

`COc1cc2cc[n+](C)c(Cc3ccc(Oc4cc(Cc5c6cc(OC)c(OC)cc6cc[n+]5C)ccc4OC)cc3)c2cc1OC`: the TGI in the experiment with IGROV1 ovarian, in the experiment on MCF7 breast, with HT29 colon, in the experiment with SW-620 colon, in the experiment on RXF 393 renal and in the experiment on PC-3 prostate was greater than 100 µM in each case. The TGI with M14 melanoma, with SNB-19 CNS, with MOLT-4 leukemia and in the experiment with DU-145 prostate was greater than 100 µM throughout.

On to `Nc1csc(-c2scc3c2OCCO3)c1N`, for which the TGI with IGROV1 ovarian is 54.8 µM; in the experiment on MCF7 breast, 33.4 µM; in the experiment with HT29 colon, 52.6 µM; in the experiment with SW-620 colon it was 87.9 µM; with RXF 393 renal, 56.1 µM; in the experiment on PC-3 prostate, 62.5 µM. Further, the TGI in the experiment with M14 melanoma is 35.2 µM; in the experiment with SNB-19 CNS it was greater than 100 µM; in the experiment with MOLT-4 leukemia, greater than 100 µM; with DU-145 prostate it was 53.8 µM.

In the case of `Fc1c(F)c(F)c(CSc2nc3ccccc3[nH]2)c(F)c1F`, the TGI in the experiment on IGROV1 ovarian, with MCF7 breast, with HT29 colon, in the experiment on SW-620 colon, in the experiment with RXF 393 renal and in the experiment on PC-3 prostate was greater than 100 µM each time. The TGI with M14 melanoma, with SNB-19 CNS, in the experiment on MOLT-4 leukemia and with DU-145 prostate was greater than 100 µM in each case.
